The values below come from ChEMBL document CHEMBL5532725, “SARS-CoV-2 Main Protease Inhibitors That Leverage Unique Interactions with the Solvent Exposed S3 Site of the Enzyme” (ACS Med Chem Lett, 2024).

This experiment deals with Replicase polyprotein 1ab (Severe acute respiratory syndrome coronavirus 2, UniProt P0DTD1). The experiment in a line: Inhibition of SARS-CoV-2 MPro preincubated for 30 mins followed by substrate addition by fluorescence based assay.
For `CC1(C)[C@@H]2[C@@H](C(=O)N[C@H](C#N)C[C@@H]3CCNC3=O)N(C(=O)[C@@H](NC(=O)C(F)(F)F)c3ccc(Cl)cc3)C[C@@H]21`, half-maximal inhibition (IC50) was put at 420 nM. In other words, the sub-micromolar range.
The compound `CC1(C)[C@@H]2[C@@H](C(=O)N[C@H](C=O)C[C@@H]3CCNC3=O)N(C(=O)C(Oc3ccc(Cl)cc3)Oc3ccc(Cl)cc3)C[C@@H]21` had an IC50 of 280 nM. This IC50 lies about 1.5-fold lower than the previous one.
The same measure for `CC1(C)[C@@H]2[C@@H](C(=O)N[C@H](C=O)C[C@@H]3CCNC3=O)N(C(=O)[C@H](CC3CCCCC3)NC(=O)OCc3ccccc3)C[C@@H]21`: 250 nM; for `CC1(C)[C@@H]2[C@@H](C(=O)N[C@H](C=O)C[C@@H]3CCNC3=O)N(C(=O)N(c3ccc(Cl)cc3)c3ccc(Cl)cc3)C[C@@H]21`: 450 nM.
The same measure for `CC1(C)[C@@H]2[C@@H](C(=O)N[C@H](C=O)C[C@@H]3CCNC3=O)N(C(=O)OC(c3ccccc3)c3ccccc3)C[C@@H]21`: 96 nM; for `CC1(C)[C@@H]2[C@@H](C(=O)N[C@H](C=O)C[C@@H]3CCNC3=O)N(C(=O)OC(c3ccc(F)cc3)c3ccc(F)cc3)C[C@@H]21`: 94 nM.
The same measure for `CC1(C)[C@@H]2[C@@H](C(=O)N[C@H](C=O)C[C@@H]3CCNC3=O)N(C(=O)C(c3ccc(Cl)cc3)c3ccc(Cl)cc3)C[C@@H]21`: 280 nM.

One may read the IC50 as the concentration that gives 50% inhibition. Lower therefore signals greater potency.
